Measurements reported in the supplement of paper PMC10331698.
± gives the standard deviation of the averaged measurements.

Experiments:
Experiment in all cases: level (log10 ratio to DMSO vehicle control); higher = higher biomarker level / cell amount than vehicle control
Details in all cases: in DMSO
[1] = compound: OCC(F)(F)C(F)(F)C(F)(F)C(F)(F)C(F)(F)C(F)F [1H,1H,7H-Dodecafluoro-1-heptanol]
Procedure: (§1)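 BioMAP Diversity Plus panel of 12 human primary cell co-culture systems (3C, 4H, LPS, SAg, BT, BF4T, BE3C, CASM3C, HDF3CGF, KF3CT, MyoF, Mphg). Compounds were added 1 h before stimulation and left for 24 h (MyoF 48 h; BT 72 h for soluble read-outs or 6 d for IgG). Biomarkers were read by ELISA, cytotoxicity by SRB, PBMC viability and proliferation by Alamar Blue. Each well value was divided by the mean of 8 DMSO control wells on the same plate and log10 transformed; duplicate blinded samples were tested at 4 concentrations.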

Azathioprine = compound: Cn1cnc([N+](=O)[O-])c1Sc1ncnc2[nH]cnc12 [Azathioprine]
Procedure: as §1

Perfluorooctanamidine = compound: N=C(N)C(F)(F)C(F)(F)C(F)(F)C(F)(F)C(F)(F)C(F)(F)C(F)(F)F [Perfluorooctanamidine]
Procedure: as §1

[2] = compound: O=C(O)C(F)(F)C(F)(F)C(F)(F)C(F)(F)C(F)(F)C(F)(F)C(F)(F)C(F)(F)C(F)(F)C(F)(F)C(F)(F)C(F)(F)C(F)(F)F [Perfluorotetradecanoic acid]
Procedure: as §1

[3] = compound: O=C(O)C(F)(F)C(F)(F)C(F)(F)C(F)(F)C(F)(F)C(F)(F)C(F)(F)C(F)(F)Cl [9-Chloro-perfluorononanoic acid]
Procedure: as §1

[4] = compound: O=S(=O)(O)C(F)(F)C(F)(F)C(F)(F)C(F)(F)F [Perfluorobutanesulfonic acid]
Procedure: as §1

[5] = compound: C=CC(=O)OCCC(F)(F)C(F)(F)C(F)(F)C(F)(F)F [2-(Perfluorobutyl)ethyl acrylate]
Procedure: as §1

| Test System | level (log10) ([1]; 6700 nM) | level (log10) ([1]; 20000 nM) | level (log10) ([1]; 60000 nM) | level (log10) (Azathioprine; 1400 nM) | level (log10) (Azathioprine; 4200 nM) | level (log10) (Azathioprine; 13000 nM) | level (log10) (Azathioprine; 38000 nM) | level (log10) (Perfluorooctanamidine; 6700 nM) | level (log10) (Perfluorooctanamidine; 20000 nM) | level (log10) (Perfluorooctanamidine; 60000 nM) | level (log10) ([2]; 6700 nM) | level (log10) ([2]; 20000 nM) | level (log10) ([3]; 6700 nM) | level (log10) ([3]; 20000 nM) | level (log10) ([4]; 6700 nM) | level (log10) ([4]; 20000 nM) | level (log10) ([4]; 60000 nM) | level (log10) ([5]; 6700 nM) | level (log10) ([5]; 20000 nM) | level (log10) ([5]; 60000 nM) |
| --- | --- | --- | --- | --- | --- | --- | --- | --- | --- | --- | --- | --- | --- | --- | --- | --- | --- | --- | --- | --- |
| LPS:CD40 | -0.0085 ± 0.03 | 0.026 ± 0.023 | -0.013 ± 0.038 | -0.041 ± 0.03 | -0.04 ± 0.016 | -0.08 ± 0.047 | -0.148 ± 0.03 | -0.0145 ± 0.04 | -0.0525 ± 0.021 | -0.148 | 0.0005 ± 0.12 | 0 ± 0.11 | 0.02 ± 0.064 | 0.055 ± 0.0071 | -0.0395 ± 0.00071 | -0.0375 ± 0.029 | -0.0555 ± 0.052 | -0.0445 ± 0.00071 | -0.044 ± 0.035 | -0.237 ± 0.035 |
| 4H:CCL26/Eotaxin-3 | -0.0075 ± 0.0078 | -0.023 ± 0.0042 | -0.0155 ± 0.022 | 0.016 ± 0.0099 | -0.009 ± 0.021 | -0.003 ± 0.011 | -0.0255 ± 0.035 | -0.006 ± 0.0042 | -0.033 ± 0.0042 | -0.118 | -0.0595 ± 0.019 | -0.0575 ± 0.047 | -0.04 ± 0.011 | 0.016 ± 0.037 | -0.0025 ± 0.054 | -0.001 ± 0.051 | -0.048 ± 0.028 | -0.0355 ± 0.039 | -0.006 ± 0.0071 | 0.0135 ± 0.0078 |
| LPS:CD106/VCAM-1 | 0 ± 0.0042 | -0.0075 ± 0.00071 | -0.0065 ± 0.019 | -0.0125 ± 0.03 | -0.0215 ± 0.028 | -0.0595 ± 0.028 | -0.155 ± 0.025 | -0.017 ± 0.014 | -0.0365 ± 0.026 | -0.091 | -0.036 ± 0.033 | -0.0565 ± 0.039 | -0.008 ± 0.045 | 0.003 ± 0.037 | -0.0055 ± 0.012 | 0.0175 ± 0.011 | 0.03 ± 0.0014 | -0.028 ± 0.024 | -0.0465 ± 0.0035 | -0.141 ± 0.011 |
| LPS:SRB | -0.008 ± 0.0014 | -0.006 ± 0.0042 | -0.0015 ± 0.015 | -0.002 ± 0.0099 | -0.0105 ± 0.0078 | -0.0215 ± 0.013 | -0.039 ± 0.014 | -0.005 ± 0.0085 | 0.006 ± 0.011 | -0.035 | -0.011 ± 0.0042 | -0.0055 ± 0.018 | 0.0015 ± 0.012 | -0.0035 ± 0.013 | 0.0065 ± 0.011 | 0.004 ± 0.0057 | 0.002 ± 0.0057 | 0.0015 ± 0.012 | -0.0015 ± 0.0035 | -0.013 ± 0.013 |
| 3C:CXCL9/MIG | 0.0065 ± 0.0078 | -0.0005 ± 0.015 | -0.0015 ± 0.0021 | 0.003 | 0.003 ± 0.0014 | 0.0025 ± 0.005 | 0.0125 ± 0.0035 | 0.007 ± 0.0071 | -0.0165 ± 0.0035 | 0.005 | -0.0045 ± 0.0035 | 0.0015 ± 0.0021 | -0.005 ± 0.0042 | 0.0065 ± 0.0078 | 0.009 ± 0.016 | 0.009 ± 0.017 | 0.0175 ± 0.0021 | 0.0135 ± 0.013 | -0.011 ± 0.0099 | -0.0025 ± 0.0035 |
| BT:sIL-17A | -0.182 ± 0.044 | -0.091 ± 0.14 | -0.174 ± 0.16 | -0.075 ± 0.078 | -0.179 ± 0.099 | -0.304 ± 0.0057 | -0.804 ± 0.058 | 0.1795 ± 0.00071 | -0.145 ± 0.044 | -0.141 | -0.111 ± 0.021 | -0.059 ± 0.16 | 0.015 ± 0.054 | 0.008 ± 0.047 | -0.0215 ± 0.14 | 0.157 ± 0.016 | 0.021 ± 0.2 | -0.217 ± 0.17 | -0.465 ± 0.067 | -1.03 ± 0.46 |
